In ChEMBL document CHEMBL1275404, “Disulfide cyclized tripeptide analogues of angiotensin IV as potent and selective inhibitors of insulin-regulated aminopeptidase (IRAP)” (J Med Chem, 2010):

Target: Aminopeptidase N (Homo sapiens, UniProt P15144)
Assay: Inhibition of catalytic activity of human recombinant aminopeptidase N expressed in HEK293 cells
Format: cell-based

Aminopeptidase N, sequence (P15144 whole entry): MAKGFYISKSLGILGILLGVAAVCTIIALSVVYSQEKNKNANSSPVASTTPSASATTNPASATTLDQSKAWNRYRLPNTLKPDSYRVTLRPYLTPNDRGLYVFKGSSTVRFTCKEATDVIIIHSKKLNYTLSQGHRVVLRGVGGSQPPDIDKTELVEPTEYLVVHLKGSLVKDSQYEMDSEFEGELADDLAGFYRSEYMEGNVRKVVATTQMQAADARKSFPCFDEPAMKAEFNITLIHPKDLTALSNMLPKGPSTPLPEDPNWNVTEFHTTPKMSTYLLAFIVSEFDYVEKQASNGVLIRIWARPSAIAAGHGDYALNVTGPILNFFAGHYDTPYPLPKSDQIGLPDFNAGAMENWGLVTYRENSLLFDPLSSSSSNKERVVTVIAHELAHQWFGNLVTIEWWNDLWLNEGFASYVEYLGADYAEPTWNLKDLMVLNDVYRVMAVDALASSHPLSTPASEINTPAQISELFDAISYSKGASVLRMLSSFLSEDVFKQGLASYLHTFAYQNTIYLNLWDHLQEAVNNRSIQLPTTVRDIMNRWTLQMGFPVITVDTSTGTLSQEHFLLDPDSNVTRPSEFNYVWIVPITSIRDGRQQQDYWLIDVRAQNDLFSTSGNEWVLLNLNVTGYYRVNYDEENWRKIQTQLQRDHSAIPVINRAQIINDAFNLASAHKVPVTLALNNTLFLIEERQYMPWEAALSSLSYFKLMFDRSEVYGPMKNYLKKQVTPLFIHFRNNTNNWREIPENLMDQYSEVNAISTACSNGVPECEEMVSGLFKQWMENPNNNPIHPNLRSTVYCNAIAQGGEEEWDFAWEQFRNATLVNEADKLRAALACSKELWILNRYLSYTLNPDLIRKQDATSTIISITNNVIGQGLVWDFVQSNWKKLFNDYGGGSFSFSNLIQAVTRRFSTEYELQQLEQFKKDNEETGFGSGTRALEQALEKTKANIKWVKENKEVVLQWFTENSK

| Ki | SMILES |
| --- | --- |
| 7.25 µM | N[C@H]1CCSSC[C@@H](C(=O)NCc2ccccc2CC(=O)O)NC(=O)C[C@H](Cc2ccc(O)cc2)NC1=O |
| 10.8 µM | N[C@H]1CCSSC[C@H](C(=O)NCc2ccccc2CC(=O)O)NC(=O)C[C@H](Cc2ccc(O)cc2)NC1=O |
